# Where “and” joins values, the source holds several entries; their conditions need not be identical. Equal values may be shown once.
# Columns and labels:
# mGlu1 P58H/N264H mutant = target: T1, mGlu1 P58H/N264H mutant (Rattus norvegicus, UniProt P23385, N264H/P58H); assay: Fura-2 Ca2+ imaging in HEK293 cells expressing mGlu1 P58H/N264H; type: cell-based; conditions: 10 μM metal ion or metal complex
# T1 construct: expressed in transfected cells; host or cells: HEK293
# [1] = tested on: MLIs infected with AAV-hSyn-mGlu1^CBC; assay: sAP-mediated currents (firing rate) of MLIs infected with AAV-hSyn-mGlu1^CBC; type: cell-based, mouse; conditions: AAV-hSyn-mGlu1CBC;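 further: 10 µM Pd complex applied to the bath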
# Description: (§1) To monitor the excitability of MLIs, sAP-mediated current responses were extracellulary recorded by a loose cell-attached voltage-clamp at a holding potential of 0 mV. Glass electrodes used for cell-attached recordings had resistances of 3–5 MΩ when filled with ACSF. The current recordings from AAV-infected cells were performed 1−2 weeks after infection. The EPSCs and sAP-mediated currents were recorded using an Axopatch 200B amplifier (Molecular Devices), and the pClamp system (version 9.2; Molecular Devices) was used for data acquisition and analysis. The signals were filtered at 1 kHz and digitized at 4 kHz for the evoked EPSCs and 10 kHz for the sAP-mediated currents.
# (§2) Injection of viral solutions was performed as described previously with slight modifications. Briefly, under deep anesthesia, with an intraperitoneal injection of medetomidine (0.3 mg/kg), midazolam (4.0 mg/kg), and butorphanol (5.0 mg/kg), 4 µL of the solutions containing AAV mixture were directly injected into the vermis of cerebellar lobules V-VIII (200-300 µm in depth, 12 µL/h in rate) of WT mice (C57BL/6J, P20-P30) using glass pipette (30–40 µm in diameter) and microinjector (Nanoliter; World Precision Instruments). In all, 1−2 week after injection, the mice were used for each experiment.
# [2] = tested on: MLIs infected with AAV-hSyn-mGlu1^WT; assay: sAP-mediated currents (firing rate) of MLIs infected with AAV-hSyn-mGlu1^WT; type: cell-based, mouse; conditions: AAV-hSyn-mGlu1WT;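 further: 10 µM Pd complex applied to the bath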
# Description: as §1, §2
# mGlu1 E60H/N264H mutant = target: T2, mGlu1 E60H/N264H mutant (Rattus norvegicus, UniProt P23385, E60H/N264H); assay: Fura-2 Ca2+ imaging in HEK293 cells expressing mGlu1 E60H/N264H; type: cell-based; conditions: 10 μM metal ion or metal complex
# T2 construct: expressed in transfected cells; host or cells: HEK293
# T2 sequence (P23385 19-1199 E60H/N264H): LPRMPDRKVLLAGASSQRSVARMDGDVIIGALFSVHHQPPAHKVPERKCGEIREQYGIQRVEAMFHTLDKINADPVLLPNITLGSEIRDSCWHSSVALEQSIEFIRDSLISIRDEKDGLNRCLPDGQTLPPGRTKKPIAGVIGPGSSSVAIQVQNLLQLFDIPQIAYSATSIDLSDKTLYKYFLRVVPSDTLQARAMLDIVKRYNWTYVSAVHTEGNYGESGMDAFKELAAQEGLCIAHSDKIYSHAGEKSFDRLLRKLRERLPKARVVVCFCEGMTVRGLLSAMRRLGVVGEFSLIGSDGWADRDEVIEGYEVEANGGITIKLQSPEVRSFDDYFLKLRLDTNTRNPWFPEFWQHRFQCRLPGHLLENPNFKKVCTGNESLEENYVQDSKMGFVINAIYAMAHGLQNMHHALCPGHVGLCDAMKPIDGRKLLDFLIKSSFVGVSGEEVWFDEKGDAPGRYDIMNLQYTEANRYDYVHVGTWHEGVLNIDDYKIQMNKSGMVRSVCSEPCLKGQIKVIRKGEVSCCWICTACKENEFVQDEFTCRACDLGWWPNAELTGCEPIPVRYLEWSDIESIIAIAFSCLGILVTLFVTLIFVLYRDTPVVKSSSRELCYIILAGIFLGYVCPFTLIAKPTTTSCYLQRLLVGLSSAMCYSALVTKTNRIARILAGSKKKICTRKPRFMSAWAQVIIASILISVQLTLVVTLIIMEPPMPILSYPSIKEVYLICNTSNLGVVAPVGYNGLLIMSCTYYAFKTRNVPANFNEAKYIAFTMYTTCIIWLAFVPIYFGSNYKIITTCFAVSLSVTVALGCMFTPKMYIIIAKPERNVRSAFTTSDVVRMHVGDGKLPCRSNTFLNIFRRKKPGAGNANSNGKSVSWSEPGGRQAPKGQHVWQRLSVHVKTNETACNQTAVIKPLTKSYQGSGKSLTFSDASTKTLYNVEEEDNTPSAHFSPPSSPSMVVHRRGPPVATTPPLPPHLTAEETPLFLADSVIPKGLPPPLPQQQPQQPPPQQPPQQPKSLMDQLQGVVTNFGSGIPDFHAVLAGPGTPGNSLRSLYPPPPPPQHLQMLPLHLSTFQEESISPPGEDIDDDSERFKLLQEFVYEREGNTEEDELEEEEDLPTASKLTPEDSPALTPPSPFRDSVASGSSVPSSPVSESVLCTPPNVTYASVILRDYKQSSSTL
# mGlu1 K61H/N264H mutant = target: T3, mGlu1 K61H/N264H mutant (Rattus norvegicus, UniProt P23385, K61H/N264H); assay: Fura-2 Ca2+ imaging in HEK293 cells expressing mGlu1 K61H/N264H; type: cell-based; conditions: 10 μM metal ion or metal complex
# T3 construct: expressed in transfected cells; host or cells: HEK293
# T3 sequence (P23385 19-1199 K61H/N264H): as the sequence (P23385 19-1199 E60H/N264H) above, with H42E, K43H counted along it
# [3] = tested on: MLIs surrounded by mGlu1(N264H)-expressing Purkinje cells (AAV-L7-mGlu1^CBC); assay: sAP-mediated currents (firing rate) of MLIs in slices infected with AAV-L7-mGlu1^CBC; type: cell-based, mouse; conditions: AAV-L7-mGlu1CBC;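 further: 10 µM Pd complex applied to the bath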
# Description: as §1, §2
# [4] = ratio of sAP-mediated currents Pd vs CTL
# T1 sequence (P23385 19-1199 P58H/N264H): as the sequence (P23385 19-1199 E60H/N264H) above, with P40H, H42E counted along it
smiles,measurement,setting,value
[Pd+2] [Pd^2+],"Receptor activation ([Ca2+]i change, Δratio)",mGlu1 P58H/N264H mutant,also activated
same,"firing rate with Pd, AVE(Hz)",[1]; Pd,9.847 Hz
same,"number of sAP-mediated currents with Pd, AVE","[1]; Pd, average of 22 MLIs",295.409
same,"Pd/CTL, AVE",[1]; average of 22 MLIs,1.392
same,"Pd/CTL, individual MLIs",[1]; [4],1.204 and 2.167 and 1.052 and 0.9801 and 1.6822 and 1.455 and 1.074 and 1.288 and 1.082 and 1.081 and 1.083 and 2.412 and 1.119 and 3.478 and 1.177 and 1.12 and 1.045 and 1.16 and 1.215 and 1.142 and 1.333 and 1.265
same,"firing rate with Pd, AVE(Hz)",[2]; Pd,8.021 Hz
same,"number of sAP-mediated currents with Pd, individual MLIs",[2]; Pd,195 and 227 and 165 and 235 and 230 and 276 and 213 and 238 and 272 and 431 and 142 and 211 and 228 and 253 and 240 and 294
same,"number of sAP-mediated currents with Pd, AVE","[2]; Pd, average of 16 MLIs",240.625
same,"Pd/CTL, AVE",[2]; average of 16 MLIs,1.02
same,"Pd/CTL, individual MLIs",[2]; [4],0.9466 and 0.8833 and 1.065 and 1.119 and 1.05 and 1.091 and 1.081 and 0.9958 and 0.8947 and 1.005 and 0.9161 and 0.8474 and 1.013 and 1.182 and 1.106 and 1.126
same,"Receptor activation ([Ca2+]i change, Δratio)",mGlu1 E60H/N264H mutant,also activated
same,"Receptor activation ([Ca2+]i change, Δratio)",mGlu1 K61H/N264H mutant,also activated
same,"firing rate with Pd, AVE(Hz)",[3]; Pd,8.376 Hz
same,"number of sAP-mediated currents with Pd, individual MLIs",[3]; Pd,269 and 246 and 275 and 319 and 316 and 259 and 286 and 137 and 343 and 147 and 282 and 292 and 186
same,"number of sAP-mediated currents with Pd, AVE","[3]; Pd, average of 15 MLIs",251.267
same,"Pd/CTL, AVE",[3]; average of 15 MLIs,1.024
same,"Pd/CTL, individual MLIs",[3]; [4],0.9181 and 1.134 and 0.9516 and 1.085 and 1.01 and 1.008 and 1.018 and 1.161 and 1.003 and 1.105 and 0.9786 and 0.9216 and 1.028 and 0.9928 and 1.051

# Reference: publication PMC9203742 (Nature Communications, 2022)
